Source: article PMC7002685, “Inhibition of vascular calcification by inositol phosphates derivatized with ethylene glycol oligomers” (Nature Communications, 2020)
Where “and” joins values, the source holds several entries; their conditions need not be identical. Equal entries are not always repeated.

Tested on: transformation of CPP1 to CPP2 in pooled human serum
Test: In vitro serum calcification propensity (T50) screening assay
Type: biochemical
Set-up: key to T50: T50 in minutes (time to 50% CPP phase transition)
Settings: for T50: one value per experiment; for activity/unit mass: mean c350 x mw (Na salt); for concentration upon which a T50 of 350 min is reached (c350), mean: mean of n experiments; for Concentration at T50 = 350 min mean ± s.d. (n) (c350): pooled human serum, 10 mM calcium, 6 mM phosphate, 37 °C; for concentration upon which a T50 of 350 min is reached (c350), single experiment: one value per experiment (lab journal reference E05-E40); for c350: unit not printed in the sentence (equals mg/L column of rebuttal Table 1)
Protocol: The compounds were ranked for calcification inhibition activity using a nanoparticle-based test, developed for risk stratification, which measures the propensity for calcification in patient serum. […] The time, after which 50% of CPP phase transition occurred (T50), was assessed by time-resolved spectrophotometry at 550 nm (Supplementary Fig. 1a).
The screening assay was performed as described previously. In brief, pooled human serum (H4522, Sigma-Aldrich) stored at −20 °C was thawed at 37 °C, centrifuged (10,000 × g, and 4 °C, 30 min) (5427R, Eppendorf, Switzerland), and sterile filtered (0.22 μm filter, Millipore, Merck KGaA) to remove potential cryoprecipitates (cleared human serum). The calcium solution was 40 mM CaCl2 (102382, Merck KGaA) in HBS, pH 7.4 (RT) (100 mM HEPES (H3375, Sigma-Aldrich) and 140 mM NaCl (1734712, Fisher Scientific, Hampton, NH, USA)). […] All salt solutions and buffers were double sterile filtered (0.22 µm) and pre-warmed to 37 °C prior to use. […] The plate was sealed with an adhesive film and the absorption at 550 nm was measured every 3 min with 1 min in-between shaking for a total of 300 cycles at 37 °C using the infinite M200 microplate reader (Tecan, Männedorf, Switzerland). An A550 vs. time graph was generated and T50 (min) (time at half-maximum transition from CPP1 to CPP2) values were derived by sigmoidal curve fit using Prism 8 (nonlinear regression in the log(agonist) vs. response–variable slope (four parameter mode) using the robust fit fitting method, GraphPad Software, San Diego, CA, USA). Activities between compounds were compared by generating a T50 (min) vs. concentration (µM) graph, calculating nonlinear regression and deriving the concentration required to delay T50 to 350 min (c350) using a standard equation for the dose–response curve, Eq. (1), whereby x = [compound], y = time (min), bottom = baseline response, top = maximum response, T50 = [drug] that leads to half-maximum response, and the hill slope is a factor that describes the steepness of the curve.1 y= bottom+top - bottom/1+T50/x^hillslope.

Structure (SMILES) | T50 (concentration 1 μM) | T50 (concentration 3 μM) | T50 (concentration 10 μM) | activity/unit mass [mg/L] | concentration upon which a T50 of 350 min is reached (c350), mean [µM] | Concentration at T50 = 350 min mean ± s.d. (n) (c350) | T50 (concentration 0.3 μM) | concentration upon which a T50 of 350 min is reached (c350), single experiment | further results
O=P1(O)OP(=O)(O)O[C@H]2[C@@H](O1)[C@@H]1OP(=O)(O)OP(=O)(O)O[C@H]1[C@@H]1OP(=O)(O)OP(=O)(O)O[C@@H]21 (racemic) [ITPP, myo-inositol trispyrophosphate] | 193.4 and 250.1 and 242.3 and 298 | 191.467 and 273.733 and 236.7 and 299.7 | 194.6 and 250.333 and 260.467 and 308.2 | 60.60 | > 100 | >100 (4) µM and >60.6 (4) mg/L |  |  | T50 (concentration 30 μM): 200.233 and 253.8 and 260.967; T50 (concentration 50 μM): 203.167; T50 (concentration 100 μM): 274.033 and 292.433
COCCOCCO[C@@H]1[C@@H](OP(=O)(O)O)[C@H](OP(=O)(O)O)[C@@H](OP(=O)(O)O)[C@@H](OP(=O)(O)O)[C@H]1OP(=O)(O)O (racemic) [OEG2-IP5, (±)-6-O-(methoxy-diethyleneglycol)-myo-inositol-1,2,3,4,5-pentakis(phosphate)] | 261.7 and 258.567 and 225.033 | 295.2 and 270.867 and 244.067 | 440.033 and 391.7 and 340.167 | 7.10 | 7.9 | 7.9 ± 2.7 (3) µM and 7.1 ± 2.4 (3) mg/L | 233.1 and 222.8 and 210.3 | 5.5 µM and 7.4 µM and 10.7 µM | Concentration at T50 = 350 min mean ± s.d. (n) (c350) (listed as (±)-4-O-(methoxy-diethyleneglycol)-myo-inositol-1,2,3,5,6-pentakis(phosphate)): 7.9 ± 2.7 µM and 7.1 ± 2.4 mg/L; c350: 7.1 ± 2.4
COCCOCCOCCOCCOCCOCCOCCO[C@@H]1[C@@H](OP(=O)(O)O)[C@H](OP(=O)(O)O)[C@@H](OP(=O)(O)O)[C@@H](OP(=O)(O)O)[C@H]1OP(=O)(O)O (racemic) [OEG7-IP5, (±)-6-O-(methoxy-heptaethyleneglycol)-myo-inositol-1,2,3,4,5-pentakis(phosphate)] | 229.7 and 230.533 and 222.7 | 271.4 and 260.7 and 241.467 | 480.067 and 432.633 and 427.367 | 7.56 | 6.7 | 6.7 ± 0.9 (3) µM and 7.6 ± 1.0 (3) mg/L | 220.667 and 225.7 and 210.2 | 5.8 µM and 6.8 µM and 7.6 µM | 
COCCOCCOCCOCCOCCOCCOCCOCCOCCOCCOCCO[C@@H]1[C@@H](OS(=O)(=O)O)[C@H](OP(=O)(O)O)[C@@H](OS(=O)(=O)O)[C@@H](OP(=O)(O)O)[C@H]1OS(=O)(=O)O (racemic) [OEG11-IP2S3, (±)-4-O-(methoxy-undecaethyleneglycol)-1,3,5-O-tris(sulfato)-myo-inositol-2,6-O-bis(phosphate)] | 217.567 and 236.467 and 212.467 | 261.167 and 253.1 and 226.6 | 303.9 and 300.967 and 303.767 and 294.6 | 22.87 | 18.6 | 18.6 ± 1.9 (5) µM and 22.9 ± 2.3 (5) mg/L | 256.3 | 16.2 µM and 19.4 µM and 17.1 µM and 19.2 µM and 20.9 µM | T50 (concentration 30 μM): 430.533 and 413.2 and 437.833 and 410.233; T50 (concentration 50 μM): 586.8 and 587.733 and 528.367
COCCOCCOCCOCCOCCOCCOCCOCCOCCOCCOCCO[C@@H]1[C@@H](OP(=O)(O)O)[C@H](OP(=O)(O)O)[C@@H](OP(=O)(O)O)[C@@H](OP(=O)(O)O)[C@H]1OP(=O)(O)O (racemic) [OEG11-IP5, (±)-6-O-(methoxy-undecaethyleneglycol)-myo-inositol-1,2,3,4,5-pentakis(phosphate)] | 258.35 and 236.633 and 236.5 | 294.167 and 279.867 and 265.867 | 559.8 and 530.3 and 501.9 | 6.84 | 5.3 | 5.3 ± 0.7 (3) µM and 6.8 ± 0.9 (3) mg/L | 222.7 and 220.167 and 220.4 | 4.6 µM and 5.2 µM and 6.0 µM | 
COCCOCCOCCOCCOCCOCCOCCOCCOCCOCCOCCOCCO[C@@H]1[C@@H](OP(=O)(O)O)[C@H](OP(=O)(O)O)[C@@H](OP(=O)(O)O)[C@@H](OP(=O)(O)O)[C@H]1OP(=O)(O)O (racemic) [OEG12-IP5, (±)-6-O-(methoxy-dodecaethyleneglycol)-myo-inositol-1,2,3,4,5-pentakis(phosphate)] |  |  |  | 6.58 | 4.9 | 4.9 ± 0.6 (5) µM and 6.6 ± 0.9 (5) mg/L |  | 6.0 µM and 4.6 µM and 4.9 µM and 4.4 µM | T50 (concentration 0.246 μM): 217.233 and 225.267; T50 (concentration 0.82 μM): 258.4 and 206.7 and 222.1 and 217.5 and 256.667; T50 (concentration 1.6 μM): 275.15 and 220.7; T50 (concentration 2.46 μM): 260.5 and 282.167; T50 (concentration 4.1 μM): 332.45 and 282.35 and 325.75 and 315.4 and 340; T50 (concentration 8.2 μM): 493.7 and 442.3 and 481.45 and 498.1 and 499.967
COCCOCCO[C@H]1[C@@H](OP(=O)(O)O)[C@H](OP(=O)(O)O)[C@@H](OP(=O)(O)O)[C@H](OP(=O)(O)O)[C@H]1OP(=O)(O)O [2-mono-OEG2-IP5, (±)-2-O-(methoxy-diethyleneglycol)-myo-inositol-1,2,3,5,6-pentakis(phosphate)] |  |  |  |  |  | 8.8 ± 0.1 µM |  |  | Concentration at T50 = 350 min mean ± s.d. (n) (c350) (listed as (±)-2-O-(methoxy-diethyleneglycol)-myo-inositol-1,2,3,5,6-pentakis(phosphate)): 7.9 ± 0.1 mg/L; c350: 7.9 ± 0.1
COCCOCCO[C@H]1[C@H](OP(=O)(O)O)[C@H](OCCOCCOC)[C@H](OP(=O)(O)O)[C@@H](OCCOCCOC)[C@@H]1OP(=O)(O)O [(OEG2)3-IP3, 2,4,6-Tri-O-(methoxy-diethyleneglycol)-myo-inositol-1,3,5-tris(phosphate)] | 250.8 and 223.6 and 227.933 | 288.867 and 266.233 and 265.7 | 440.6 and 395.433 and 411.533 | 5.43 | 7.1 | 7.1 ± 0.9 (3) µM and 5.4 ± 0.7 (3) mg/L |  | 6.1 µM and 7.7 µM and 7.4 µM | T50 (concentration 5 μM): 325.1 and 295.733 and 294.5
COCCOCCOCCOCCOCCOCCOCCO[C@@H]1[C@@H](OP(=O)(O)O)[C@H](OCCOCCOCCOCCOCCOCCOCCOC)[C@@H](OP(=O)(O)O)[C@@H](OP(=O)(O)O)[C@H]1OP(=O)(O)O [(OEG7)2-IP4, 4,6-Di-O-(methoxy-heptaethyleneglycol)-myo-inositol-1,2,3,5-tetrakis(phosphate)] | 243.55 and 226.667 and 233.367 | 297.4 and 271.533 and 282.8 | 754.35 and 624.433 and 692.333 | 5.96 | 4.5 | 4.5 ± 0.4 (3) µM and 6.0 ± 0.6 (3) mg/L | 217.433 and 203.2 and 207.5 | 4.1 µM and 4.9 µM and 4.5 µM | 
